Measurements as given in patent publication US7759326B2, “Aminophosphonic acid derivative, salt thereof, and modulator of S1P receptor” (Kyorin Pharmaceutical Co., Ltd., priority 2003, dated 2010).
Structures can show the parent of a compound that is named as a salt.

How the values were obtained:
[1] = target: T1, hS1P1 receptors (Homo sapiens, UniProt P21453); test: Intracellular Ca2+ mobilization in CHO cells expressing human S1P receptors (hS1P1); type: cell-based; conditions: read-out: S1P1 (EC50 class, intracellular Ca2+ mobilization)
T1 construct: expressed in transfected cells; host or cells: CHO cells (Geneticin-selected)
Description: (§1) Test for the Ability of Test Compounds to Induce Intracellular Ca^2+ Mobilization in Cells Expressing Human S1P (Sphingosine-1-Phosphate) Receptors
(§2) CHO cells expressing human S1P receptors (i.e., CHO cells expressing hS1P1 receptors or hS1P3 receptors) were subcultured on Ham's F-12 medium supplemented with 10% fetal bovine serum and 200 μg/mL Geneticin. The cells were seeded on a 96-well black clear bottom plate (COSTAR) at 4×10^4 cells/well and were cultured overnight at 37° C. in 5% CO2. A fluorescent reagent that emits fluorescence upon binding to Ca^2+ (Calcium Screening Kit (DOJINDO)) was added to the culture and the cells were further cultured for 60 min at 37° C. in 5% CO2. After culturing, microplate spectrofluorometer (FLEX station, MOLECULAR DEVICE) was used to measure the fluorescence intensity at an excitation wavelength of 485 nm and a detection wavelength of 525 nm. S1P or a test compound adjusted with cultural medium to a concentration 10 times higher than the final concentration (final DMSO concentration=0.1%). Each test compound solution was added 18 sec. after beginning of the measurement of fluorescence. The fluorescence intensity was measured every 1.5 sec for 100 sec. For each test compound, the difference between the maximum fluorescence intensity and the minimum fluorescence intensity (i.e., increase in fluorescence) was determined from the measurements. The rate of fluorescence increase (%) for each test compound was calculated by the difference (100%) of the fluorescence increase between solvent only and S1P (10^−6M). Using this value as an index of the ability of the test compound to induce intracellular Ca^2+ mobilization, EC50 was determined by PRISM software (GraphPad).

[2] = target: T2, hS1P3 receptors (Homo sapiens, UniProt Q99500); test: Intracellular Ca2+ mobilization in CHO cells expressing human S1P receptors (hS1P3); type: cell-based; conditions: read-out: S1P3 (EC50 class, intracellular Ca2+ mobilization)
T2 construct: expressed in transfected cells; host or cells: CHO cells (Geneticin-selected)
Description: as §1, §2

T2 sequence (Q99500 whole entry): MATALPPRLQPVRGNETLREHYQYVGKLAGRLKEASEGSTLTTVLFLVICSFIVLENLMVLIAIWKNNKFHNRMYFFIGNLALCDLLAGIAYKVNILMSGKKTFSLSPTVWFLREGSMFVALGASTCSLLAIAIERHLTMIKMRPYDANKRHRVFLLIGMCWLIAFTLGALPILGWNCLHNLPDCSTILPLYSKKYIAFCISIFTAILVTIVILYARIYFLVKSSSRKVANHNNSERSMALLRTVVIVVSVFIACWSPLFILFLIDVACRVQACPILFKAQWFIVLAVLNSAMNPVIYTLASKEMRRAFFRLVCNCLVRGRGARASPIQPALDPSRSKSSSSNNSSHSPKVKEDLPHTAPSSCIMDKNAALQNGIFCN
T1 sequence (P21453 whole entry): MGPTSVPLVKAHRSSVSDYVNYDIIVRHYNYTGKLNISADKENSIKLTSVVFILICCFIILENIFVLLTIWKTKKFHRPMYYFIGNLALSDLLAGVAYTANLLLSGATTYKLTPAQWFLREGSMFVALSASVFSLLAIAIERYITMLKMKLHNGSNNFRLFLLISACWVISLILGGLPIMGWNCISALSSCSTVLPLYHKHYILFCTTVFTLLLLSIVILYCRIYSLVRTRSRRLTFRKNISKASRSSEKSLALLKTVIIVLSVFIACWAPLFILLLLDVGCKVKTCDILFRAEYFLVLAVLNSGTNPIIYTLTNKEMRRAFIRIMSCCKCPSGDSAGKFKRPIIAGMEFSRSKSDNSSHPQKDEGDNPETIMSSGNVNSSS

| SMILES | EC50 [1] | EC50 [2] | melting point |
| --- | --- | --- | --- |
| CC(N)(/C=C/P(=O)(O)O)CCCc1ccc(Sc2cccc(OCc3ccccc3)c2)cc1Cl (racemic) [Example 261, 3-amino-6-[4-(3-benzyloxyphenylthio)-2-chlorophenyl]-3-methyl-1-hexenylphosphonic acid] | 100 to 1000 nM | ≥ 1000 nM | 243 to 245 °C |
| CC(N)(CCc1ccc(Sc2cccc(OCc3ccccc3)c2)cc1Cl)COP(=O)(O)O (single isomer, unassigned; (+)) [Example 249, (+)-2-amino-4-[4-(3-benzyloxyphenylthio)-2-chlorophenyl]-2-methylbutylphosphonate monoester] | 10 to 100 nM | < 10 nM | – |
| CC(N)(CCCc1ccc(Sc2cccc(OCc3ccccc3)c2)cc1Cl)COP(=O)(O)O (single isomer, unassigned; (-)) [Example 240, (−)-2-amino-5-[4-(3-benzyloxyphenylthio)-2-chlorophenyl]-2-methylpentylphosphonate monoester] | 10 to 100 nM | 100 to 1000 nM | 200 to 203 °C |
| CC(N)(CCc1ccc(Sc2cccc(OCc3ccccc3)c2)cc1Cl)COP(=O)(O)O (single isomer, unassigned; (-)) [Example 250, (−)-2-amino-4-[4-(3-benzyloxyphenylthio)-2-chlorophenyl]-2-methylbutylphosphonate monoester] | 100 to 1000 nM | ≥ 1000 nM | – |
| CCCC(N)(/C=C/P(=O)(OC)OC)CCCc1ccc(Sc2cccc(OCc3ccccc3)c2)cc1Cl (stereo not drawn) [Example 280, Dimethyl 3-amino-6-[4-(3-benzyloxyphenylthio)-2-chlorophenyl]-3-propyl-1-hexenylphosphonate hydrochloride] | 100 to 1000 nM | 100 to 1000 nM | – |
| CCCC(N)(/C=C/P(=O)(O)O)CCCc1ccc(Sc2cccc(OCc3ccccc3)c2)cc1Cl (stereo not drawn) [Example 283, 3-amino-6-[4-(3-benzyloxyphenylthio)-2-chlorophenyl]-3-propyl-1-hexenylphosphonic acid] | 10 to 100 nM | 10 to 100 nM | – |
| CCCC(N)(CCCc1ccc(Sc2cccc(OCc3ccccc3)c2)cc1Cl)CCP(=O)(O)O (stereo not drawn) [Example 284, 3-amino-6-[4-(3-benzyloxyphenylthio)-2-chlorophenyl]-3-propylhexylphosphonic acid] | 10 to 100 nM | 100 to 1000 nM | – |
| NC(CO)(CCCCc1ccc(Sc2cccc(OCc3ccccc3)c2)cc1Cl)CCP(=O)(O)O (stereo not drawn) [Example 289, 3-amino-[4-(3-benzyloxyphenylthio)-2-chlorophenyl]-3-hydroxymethylheptylphosphonic acid] | – | – | 180 to 183 °C |
| NC(CO)(CCCc1ccc(Sc2cccc(OCc3ccccc3)c2)cc1Cl)C(O)C(F)(F)P(=O)(O)O (stereo not drawn) [Example 293, 3-amino-6-[4-(3-benzyloxyphenylthio)-2-chlorophenyl]-1,1-difluoro-2-hydroxy-3-hydroxymethylhexylphosphonic acid] | 100 to 1000 nM | 100 to 1000 nM | – |
| NC(CO)(CCCc1ccc(Oc2cccc(C(F)(F)F)c2)cc1Cl)CCP(=O)(O)O (stereo not drawn) [Example 296, 3-amino-6-[2-chloro-4-(3-trifluoromethylphenoxy)phenyl]-3-hydroxymethylhexylphosphonic acid] | 10 to 100 nM | ≥ 1000 nM | – |
| NC(CO)(CCCc1ccc(Sc2cccc(C(F)(F)F)c2)cc1Cl)COP(=O)(O)O (stereo not drawn) [Example 299, 2-amino-5-[2-chloro-4-(3-trifluoromethylphenylthio)phenyl]-2-hydroxymethylpentylphosphonate monoester] | 10 to 100 nM | ≥ 1000 nM | – |
| NC(CO)(CCCc1ccc(Oc2cccc(C(F)(F)F)c2)cc1Cl)COP(=O)(O)O (stereo not drawn) [Example 300] | 10 to 100 nM | ≥ 1000 nM | – |
| NC(CO)(CCc1ccc(Sc2ccc(OCc3ccccc3)cc2)cc1Cl)CCP(=O)(O)O (stereo not drawn) [Example 308, 3-amino-5-[4-(4-benzyloxyphenylthio)-2-chlorophenyl]-3-hydroxymethylpentylphosphonic acid] | 100 to 1000 nM | ≥ 1000 nM | – |
